Key:
+SA mammary tumor cells = test: HGF-dependent +SA mammary tumor cell growth, viable cell number by MTT colorimetric assay; format: cell-based, mice; conditions: for HGF-dependent +SA cell growth: vs vehicle-treated control; for +SA tumor cell growth: summary statement, HGF-dependent, in a dose-responsive manner
Procedure: +SA mammary tumor cells were used for the examples presented herein. […] In addition, +SA cells can form adenocarcinomas that metastasize to the lungs when injected into the mammary gland fat pad of syngeneic female mice. +SA cells were maintained in serum-free defined media containing 10 ng/mL Hepatocyte growth factor (HGF) as the mitogen, Dulbecco's Modified Eagle's Medium (DMEM)/F12 supplemented with 5 mg/mL bovine serum albumin (BSA), 10 μg/mL transferrin, 100 U/mL soybean trypsin inhibitor, 100 U/mL penicillin, 0.1 mg/mL streptomycin and 10 μg/mL insulin at 37° C. in an environment of 95% air and 5% CO2 in humidified incubator. For subculturing, cells were rinsed with sterile Ca^2+ and Mg^2+-free phosphate buffered saline (PBS) and incubated with 0.05% trypsin containing 0.025% EDTA in PBS for 5 min at 37° C. The released cells were centrifuged, resuspended in serum-free media and counted using hemocytometer.
γ-tocotrienol was prepared for the tests of this example by suspending it in a solution of sterile 10% BSA. An appropriate amount of γ-tocotrienol was dissolved in 100 μL of absolute ethyl alcohol and then added to a small volume of sterile 10% BSA in water and incubated overnight at 37° C. This stock solution was used to prepare various concentrations of the treatment media. Ethanol was added to all treatment groups in a given experiment such that the final concentration of ethanol never exceeded 0.1%. Stock solution of the Met inhibitor, SU11274 was prepared in DMSO and DMSO was added to all treatment media such that the final concentration was same in all treatment groups and never exceeded a concentration of 0.1%.
+SA cells were initially seeded at a density of 5×10^4 cells/well (6 replicates/group) in 24-well plates in serum-free defined media containing 10 ng/mL HGF as mitogen and allowed to attach overnight. For growth studies, +SA cells were maintained in serum-free defined media containing various doses of HGF over a 3-day culture period. In the antiproliferative experiments, cells were exposed to respective experimental treatments containing various concentrations of SU11274 or γ-tocotrienol alone or in combination for three days. On the fourth day, cells were divided into different treatment groups and treated with various concentrations of SU11274 or γ-tocotrienol alone or in combination for 24 hours. At the end of the treatment exposure period, the viable +SA cell number was determined by 3-(4,5-dimethylthiazol-2yl)-2,5-diphenyl tetrazolium bromide (MTT) colorimetric assay. Control and treatment media in various treatment groups in 24-well plates were replaced with fresh media containing 0.41 mg/ml MTT. After 4-h incubation period, the media was removed and MTT crystals were dissolved in isopropanol (1 ml/well), and the optical density of each sample was measured at 570 nm on a microplate reader (SpectraCount, Packard BioScience Company). The number of cells/well was calculated against a standard curve prepared by plating various concentrations of cells, as determined by hemocytometer, at the beginning of each experiment.
Vertical bars indicate mean viable cell number±SEM for six replicates in each treatment group. Differences among various treatment groups in +SA cell growth studies were determined by the analysis of variance (ANOVA) followed by Dunnett's t test. A difference of P<0.05 was considered statistically significant as compared to the vehicle-treated control.
Effects of various doses of SU11274, a specific Met Receptor Tyrosine Kinase inhibitor, or γ-tocotrienol on HGF-dependent +SA mammary tumor cell growth after a 3-day culture period are shown in FIG. 2. […] In the present example, +SA cells were initially plated at a density of 5×10^4 cells/well (6 replicates/group) in 24-well plates and exposed to various doses of SU11274 or γ-tocotrienol in the presence of 10 ng/mL HGF throughout a 3-day culture period. Viable cell number was determined using the MTT colorimetric assay. […]

Met = target: T1, Met (Mus musculus, UniProt P16056); test: Western blot analysis of total and phosphorylated (active) Met levels in HGF-stimulated +SA cells; format: cell-based, mice; conditions: for HGF-dependent Met tyrosine phosphorylation: summary statement, in a dose-responsive manner
T1 construct: whole cell lysates were prepared and then subjected to polyacrylamide gel electrophoresis and Western blot analysis for total and phosphorylated Met levels; endogenous in cells; host or cells: +SA mammary tumor cells
T1 sequence (P16056 25-1379): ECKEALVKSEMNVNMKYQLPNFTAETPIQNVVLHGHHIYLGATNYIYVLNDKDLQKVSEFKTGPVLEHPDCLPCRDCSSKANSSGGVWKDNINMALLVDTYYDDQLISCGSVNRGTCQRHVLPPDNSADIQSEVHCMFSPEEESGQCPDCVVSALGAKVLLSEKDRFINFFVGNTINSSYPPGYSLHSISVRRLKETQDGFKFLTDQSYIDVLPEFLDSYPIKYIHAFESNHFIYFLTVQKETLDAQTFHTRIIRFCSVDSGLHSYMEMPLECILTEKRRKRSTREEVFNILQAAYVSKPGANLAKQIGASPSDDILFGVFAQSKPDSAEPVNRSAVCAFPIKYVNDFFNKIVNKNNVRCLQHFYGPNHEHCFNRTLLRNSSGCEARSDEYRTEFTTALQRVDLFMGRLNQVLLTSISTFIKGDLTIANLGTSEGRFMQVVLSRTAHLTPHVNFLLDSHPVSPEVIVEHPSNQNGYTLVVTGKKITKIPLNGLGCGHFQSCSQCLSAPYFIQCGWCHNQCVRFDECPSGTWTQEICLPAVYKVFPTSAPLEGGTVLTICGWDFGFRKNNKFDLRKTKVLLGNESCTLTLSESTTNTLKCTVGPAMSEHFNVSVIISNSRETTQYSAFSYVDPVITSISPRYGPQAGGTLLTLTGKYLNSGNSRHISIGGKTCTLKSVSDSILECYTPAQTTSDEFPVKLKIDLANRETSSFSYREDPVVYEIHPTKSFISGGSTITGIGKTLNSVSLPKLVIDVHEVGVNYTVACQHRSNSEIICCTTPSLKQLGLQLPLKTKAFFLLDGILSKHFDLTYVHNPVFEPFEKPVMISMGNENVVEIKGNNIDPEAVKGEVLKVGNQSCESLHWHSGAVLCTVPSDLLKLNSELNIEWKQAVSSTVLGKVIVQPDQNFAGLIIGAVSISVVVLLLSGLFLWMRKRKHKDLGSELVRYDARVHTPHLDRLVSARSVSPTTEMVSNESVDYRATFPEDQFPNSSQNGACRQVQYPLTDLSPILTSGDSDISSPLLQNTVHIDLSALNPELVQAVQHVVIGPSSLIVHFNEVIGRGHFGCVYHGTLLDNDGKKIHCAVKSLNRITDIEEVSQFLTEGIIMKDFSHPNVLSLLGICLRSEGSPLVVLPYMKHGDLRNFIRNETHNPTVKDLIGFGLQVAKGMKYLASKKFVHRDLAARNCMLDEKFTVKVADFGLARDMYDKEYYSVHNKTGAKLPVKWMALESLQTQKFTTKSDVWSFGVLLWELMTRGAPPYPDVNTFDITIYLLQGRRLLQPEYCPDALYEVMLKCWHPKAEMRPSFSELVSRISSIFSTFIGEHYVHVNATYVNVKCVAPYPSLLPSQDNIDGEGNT
Procedure: For Western blot analysis, +SA cells were initially plated at a density of 1×10^6 cells/100-mm culture dish, allowed to attach overnight and then incubated in the respective control or treatment media. At the end of treatment period, cells were isolated with trypsin, washed with PBS, and then whole cell lysates were prepared in a Laemmle buffer. Protein concentration in each sample was determined using a protein assay kit (Bio-Rad protein assay kit, Bio Rad, Hercules, Calif., USA). Equal amount of protein (30-50 μg/lane) of each sample was subjected to electrophoresis through 7.5%-15% SDS-polyacrylamide minigels. Minigels within a given treatment were run simultaneously using AccuPower model 500 power supply unit (VWR, Suwanee, Ga., USA). Each gel was then equilibrated in transfer buffer and transblotted at 30 V for 12-16 hours at 4° C. onto a polyvinylidene fluoride (PVDF) membrane (PerkinElmer Lifesciences, Wellesley, Mass., USA) in a Trans-Blot Cell (Bio-Rad Laboratories, Hercules, Calif.) according to the method of Towbin. These PVDF membranes were then blocked with 2% BSA in 10 mM Tris-HCl containing 50 mM NaCl and 0.1% Tween 20, pH 7.4 (TBST) and then, incubated with specific primary antibodies against Met, phospho-Met, cleaved caspase-3, cleaved PARP, and α-tubulin diluted 1:1000 to 1:5000 in 2% BSA in TBST for 2 hours at room temperature or overnight at 4° C. Membranes were then washed 5 times with TBST and incubated with respective horseradish […]-conjugated secondary antibody diluted 1:3000 to 1:5000 in 2% BSA in TBST for 1 hour at room temperature followed by rinsing with TBST for 5 times. Blots were then visualized by chemiluminescence. (Pierce, Rockford, Ill., USA). Images of protein bands from all treatment groups within a given experiment were acquired using Kodak Gel Logic 1500 Imaging System (Carestream Health Inc, New Haven, Conn., USA). The visualization of α-tubulin was used to ensure equal sample loading in each lane.
+SA cells were plated at a density of 1×10^6 cells/100 mm culture dish. Cells were then incubated with serum-free media containing vehicle (control), 5.5 μM SU11274 or 4 μM γ-tocotrienol and 10 ng/mL HGF as the mitogen for a 3-day culture period. Following treatment exposure, cells were incubated in mitogen-free media overnight. Afterwards, cells were stimulated with 100 ng/mL HGF for 30 min Cells incubated in mitogen-free media were used as untreated controls. Following mitogen exposure, whole cell lysates were prepared and then subjected to polyacrylamide gel electrophoresis and Western blot analysis for total and phosphorylated Met levels. α-Tubulin was visualized to ensure equal sample loading in each lane. Each Western blot is a representative image of the data obtained for experiments that were repeated at least three times.
The +SA cells were plated at a density of 1×10^6 cells/100 mm culture dish. Cells were then incubated with serum-free media containing vehicle (control) or 4 μM γ-tocotrienol, and 10 ng/mL HGF as a mitogen. Cells were collected at various times during the next 72-h period. Following treatment exposure at each time point, cells were incubated in mitogen-free media overnight. Afterwards, cells were stimulated with 100 ng/mL HGF for 30 min Cells incubated with mitogen-free media were used as untreated controls. Following mitogen exposure, whole cell lysates were prepared and then subjected to polyacrylamide gel electrophoresis and Western blot analysis for total and phosphorylated (active) Met receptor levels. α-Tubulin was visualized to ensure equal sample loading in each lane. Western blots presented in FIG. 4 are representative of the data obtained for experiments that were repeated at least three times.
Cells were then incubated with serum-free media containing vehicle (control), 3 μM SU11274, 2 μM γ-tocotrienol or the combination of 3 μM SU11274 and 2 μM γ-tocotrienol, and 10 ng/mL HGF as a mitogen for a 3-day culture period. […]

[1] = 5.5 μM SU11274, 3-day culture, then 100 ng/mL HGF for 30 min, vs vehicle-treated control
[2] = 4 μM γ-tocotrienol, 10 ng/mL HGF, time course over 72 h, vs vehicle-treated control

## Cc1[nH]c(/C=C2\C(=O)Nc3ccc(S(=O)(=O)N(C)c4cccc(Cl)c4)cc32)c(C)c1C(=O)N1CCN(C)CC1 [SU11274, reference compound]
+SA mammary tumor cells; 4.5-5.5 μM SU11274, 10 ng/mL HGF, 3-day culture, P<0.05
  HGF-dependent +SA cell growth: significantly inhibited
+SA mammary tumor cells; subeffective dose 3 μM SU11274 alone, 10 ng/mL HGF, 3-day culture
  HGF-dependent +SA cell growth: no effect
+SA mammary tumor cells
  +SA tumor cell growth: inhibited
Met; [1]
  HGF-dependent Met tyrosine phosphorylation (activation): large relative reduction
  total intracellular levels of Met receptors: no effect
Met
  HGF-dependent Met tyrosine phosphorylation: inhibited

## CC(C)=CCC/C(C)=C/CC/C(C)=C/CC[C@]1(C)CCc2cc(O)c(C)c(C)c2O1 [γ-tocotrienol]
+SA mammary tumor cells; 4 μM γ-tocotrienol, 10 ng/mL HGF, 3-day culture, P<0.05
  HGF-dependent +SA cell growth: significantly inhibited
+SA mammary tumor cells; subeffective dose 2 μM γ-tocotrienol alone, 10 ng/mL HGF, 3-day culture
  HGF-dependent +SA cell growth: no effect
+SA mammary tumor cells
  +SA tumor cell growth: inhibited
Met; [2]
  culture exposure time at which reduction in total levels of Met protein was maximal: 3 days
  treatment exposure time at which reduction in total levels of Met protein started: 24 h
Met; 4 μM γ-tocotrienol, 3-day culture, then 100 ng/mL HGF for 30 min
  level of total Met protein: significant reduction
Met; 4 μM γ-tocotrienol, 3-day culture, then 100 ng/mL HGF for 30 min, mirrors loss of Met expression
  HGF-induced Met phosphorylation: loss
Met
  HGF-dependent Met tyrosine phosphorylation: inhibited

## HGF: Hepatocyte growth factor (HGF), the mitogen, purchased from PeproTech Inc.
+SA mammary tumor cells; stimulation with 1-10 ng/mL HGF, 3-day culture, dose-responsive, vs mitogen-free control media, P<0.05
  growth of neoplastic +SA mammary epithelial cells (viable cell number): significantly increased
